What was measured:
[1] = system: potassium oxonate-induced hyperuricemia in rats; assay: Effect on potassium oxonate-induced hyperuricemia in rats (serum uric acid); format: in vivo, rat; details: male SD rats, 5 mg/kg oral; for serum uric acid levels, time after dosing 0.5 h: 0.5 h after dosing; for serum uric acid levels, time after dosing 1 h: 1 h after dosing; for serum uric acid levels, time after dosing 2 h: 2 h after dosing; for serum uric acid levels, time after dosing 3 h: 3 h after dosing; for serum uric acid levels, time after dosing 4 h: 4 h after dosing
Protocol: Healthy male SD rats, weighing 250±20 g, were used. In the experiment, except for 10 rats as normal control group were orally administered with distilled water, the others were orally administered with yeast extract (20 g/kg, qd×5 days). One hour after last administration, all the rats were intraperitoneal injection with 250 mg/kg potassium oxonate while normal control group was treated with an equal volume of 0.5% CMC-Na (injection volume of 2 ml/kg). After one hour, rats were anesthetized with isoflurane and the serum uric acid was determined by uric acid test strip. All the rats were divided into groups by uric acid. The model control group and experimental groups was given orally administration 0.5% CMC-Na or compounds with a dose of 10 ml/kg-bw. Phosphotungstic acid precipitation method was used to detect serum uric acids in inner canthus blood at 0.5, 1, 2, 3, 4 h after administration, respectively. Substantially, observing the effects of compounds on serum uric acids levels and calculating each of groups' AUC and the inhibition of uric acid increased area by the equation as follows: […]
As shown in the equation, AUC0 indicated the AUC of model control group, AUC1 indicated the AUC of therapy group, AUC2 indicated the AUC of normal control group.

[2] = target: URAT1 (Homo sapiens (Human), UniProt Q96S37); assay: URAT1 in vitro inhibition activity, Method A (14C-uric acid uptake in HEK293-URAT-4 cells); format: cell-based; details: 50 μM 14C-uric acid, 10 min uptake
Sequence of URAT1 (Q96S37 whole entry): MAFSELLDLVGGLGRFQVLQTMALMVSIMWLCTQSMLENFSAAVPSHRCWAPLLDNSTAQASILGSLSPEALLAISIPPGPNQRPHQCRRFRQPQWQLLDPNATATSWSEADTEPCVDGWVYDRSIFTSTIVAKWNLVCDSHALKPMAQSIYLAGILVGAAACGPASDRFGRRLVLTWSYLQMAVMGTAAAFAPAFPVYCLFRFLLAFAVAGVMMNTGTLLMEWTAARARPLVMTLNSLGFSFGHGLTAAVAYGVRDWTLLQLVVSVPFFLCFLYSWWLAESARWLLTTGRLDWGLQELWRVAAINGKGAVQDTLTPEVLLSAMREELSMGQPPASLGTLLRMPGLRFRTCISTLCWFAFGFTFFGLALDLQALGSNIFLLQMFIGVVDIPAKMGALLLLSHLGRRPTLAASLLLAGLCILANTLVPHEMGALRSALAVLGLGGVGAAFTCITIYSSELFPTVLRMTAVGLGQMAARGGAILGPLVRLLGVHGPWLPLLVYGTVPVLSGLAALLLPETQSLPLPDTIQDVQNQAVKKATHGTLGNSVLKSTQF
Protocol: The potency of the compounds of formula (I) as inhibitors of the URAT1 was determined as follow.
Cell Lines were generated in WuXi AppTec (HEK293-URAT-4: Stable cell line of HEK293 which was transfected with pcDNA3.1-URAT (Human SLC22A12 cDNA Clone, Abgent-DC07943). HEK293-PCDNA-5: Negative control cell of HEK293 which was transfected with pcDNA3.1 empty vector.
Cells were seeded onto 24-well plates at the density of 2.0×10^5 cells per well. The cells were incubated at 37° C., 5% CO2 overnight. After approximately 24 hours culture, cells were used for uptake experiments. The culture medium were removed from the wells and the cells were incubated in 0.4 ml/well of Hank's balanced salt solution (HBSS) for 10 min. HBSS was replaced with 0.18 ml/well fresh HBSS. Compounds were 5 folds serial diluted in DMSO, and then 25 folds diluted in HBSS. Compounds diluted with HBSS (10 μl) were added to relevant well of cell plates, and plates were incubated at 37° C., 5% CO2 for 15 min. The final concentration of DMSO in the assay was 0.2%. 10 μl HBSS containing radioactively labeled Urate (^14C-uric acid) was added to each well. The final concentration of ^14C-uric acid in the assay medium was 50 μM. After 10 min, the assay medium was immediately removed. The cells were washed quickly with 0.5 ml pre-chilled HBSS twice. 0.1 M NaOH (0.4 ml) was added to lyse the cells for at least 20 min. The cell lysate was collected to a scintillation vial, and scintillant (4 ml) was added and the radioactivity was counted by a liquid scintillation counter. Inhibiton % data were calculated using the formula
[formula] CPD: Signal from a well containing a test compound HC (high control): Average of signals from HEK293-URAT-4 cells LC (low control): Average of signals from HEK293-PCDNA-5.

Row | Structure (SMILES) | serum uric acid levels, time after dosing 0.5 h [1] | serum uric acid levels, time after dosing 1 h [1] | serum uric acid levels, time after dosing 2 h [1] | serum uric acid levels, time after dosing 3 h [1] | serum uric acid levels, time after dosing 4 h [1] | IC50 [2]
1 | N#Cc1ccc(-c2cnccc2SC2(C(=O)O)CCC2)n2cccc12 [Example 1, 1-((3-(8-Cyanoindolizin-5-yl)pyridin-4-yl)thio)cyclobutane-1-carboxylic acid] | 492.8 ± 82.4 µmol/L | 506.0 ± 88.5 µmol/L | 407.7 ± 100.7 µmol/L | 343.2 ± 84.3 µmol/L | 289.8 ± 77.8 µmol/L | 30 nM
2 | Cc1cc2c(C#N)ccc(-c3cnccc3SC3(C(=O)O)CCC3)n2c1 [Example 5, 1-((3-(8-cyano-2-methylindolizin-5-yl)pyridin-4-yl)thio)cyclobutane-1-carboxylic acid] | – | – | – | – | – | 110 nM
3 | N#Cc1ccc(-c2cnccc2SC2(C(=O)O)CCC2)n2cc(C(F)(F)F)cc12 [Example 7, 1-((3-(8-cyano-2-(trifluoromethyl)indolizin-5-yl)pyridin-4-yl)thio)cyclobutane-1-carboxylic acid] | 485.3 ± 79.3 µmol/L | 510.0 ± 103.7 µmol/L | 460.6 ± 87.4 µmol/L | 381.3 ± 84.3 µmol/L | 307.9 ± 71.0 µmol/L | 44 nM
